Laboratory results: patent US4442093A, “Method for administering 24,25-dihydroxycholecalciferol to persons suffering from hypercalcemia” (Kureha Kagaku Kogyo Kabushiki Kaisha, priority 1981, dated 1984)

Tests used:
[1] = test system: inorganic phosphate in serum; experiment: Serum inorganic phosphate in chronic renal failure patients without hemodialysis (Example 20); format: in vivo, human
Description: Eight patients suffering from chronic renal failure and not being subjected to hemodialysis shown in Table 14 were treated by oral daily administration of 24R,25-(OH)2 -D3 in a form of the soft capsule composition obtained in Example 6 at a daily dose of 2 to 10 micrograms for 8 weeks. The concentration of inorganic phosphate in the serum of each patient before the above-mentioned administration and that after completion of the above-mentioned administration for 8 weeks were determined by the Molybdenum Blue method, the results being shown in Table 14.

[2] = test system: ulcer found on the duodenum; experiment: Healing of acetic acid induced duodenal ulcer (Example 10); format: in vivo, male rats; conditions: 20 µg/kg/day oral, 10 days
Description: Fourty five male rats of body weight of 240 to 260 g were equally divided into three groups, each consisting of 15 animals, and they were subjected to an operation following the method of Okabe et al. (refer to Amer. J. Dig. Dia., 16, 277, 1971), in which under anesthesia by ether, a circular frame made of a metal was placed on the serosa 5 to 7 mm from the pylorus and 0.06 ml of gracial acetic acid was poured onto the round part within the frame and after 30 sec, the acetic liquid was removed with the frame.
The thus operated rats of the first group were administered orally with a suspension of […] of 24R,25-(OH)2 -D3 in Panacete®810 containing 0.2% by weight of ethanol once a day for continuous 10 days from the third day of the operation at a daily dose rate of 20 micrograms of 24R,25-(OH)2 -D3 /kg. To the thus operated rats of the second group (control), only Panacete®810 was orally administered at a daily dose rate of 2 ml/kg for continuous 10 days.
The thus operated rats of the third group were used in the comparative test. Namely, they were treated in the same manner as those of the first group except for administration of gefarnate (3,7-dimethyl-2,6-octadienyl-5,9,13-trimethyl-4,8,12-tetradecatrienoate) at a daily dose rate of 20 microgram/kg body weight in stead of 24R,25-(OH)2 -D3 in the first group.
After finishing the final administration, all the rats were sacrificed by ether and their duodenum was taken out for autopsy. The length and the width of the ulcer found on the duodenum were measured, and their product with a unit of mm^2 was taken and named as the ulcer coefficient. The rate of healing of the ulcer was calculated by the following formula: [formula] wherein C is the ulcer coefficient of control and U is the ulcer coefficient of the group to which the present compound was administered.

[3] = test system: content of magnesium in serum and bone; experiment: Serum and bone magnesium in rats on Vitamin D-deficient diet (Example 16); format: in vivo, male Wistar rats; conditions: diet TD-81143
Description: Forty male Wistar rats in 9th week after birth were divided equally into four groups, and the rats of each group were treated as follows:
The rats of the first group were raised with a normal diet (TD-81144) with daily oral administration of 0.2 ml of MCT (refer to Example 15)/100 g body weight for 5 weeks.
The rats of the second group were raised with a Vitamin D-deficient diet (TD-81143, made by TEKLAD Co., U.S.A., which causes abnormal metabolism of magnesium) with daily oral administration of 0.2 ml of MCT/100 g body weight for 5 weeks.
The rats of the third group were raised with the Vitamin D-deficient diet as in those of the […] with daily oral administration of 1 microgram of 24R,25-(OH)2 -D3 dissolved in 0.2 ml of MCT/100 g body weight for 5 weeks.
The rats of the fourth group were raised with the Vitamin D-deficient diet as in those of the […] with daily oral administration of 10 micrograms of 24R,25-(OH)2 -D3 dissolved in 0.2 ml of MCT/100 g body weight for 5 weeks.
After the final administration was over, all the rats were sacrificed to collect their bones and blood respectively.
Serum specimen was prepared by the ordinary method from the blood specimen, and the bones were washed to remove marrow, lyopholized at -20° C. for 3 days and pulverized in a mortar. After de-ashing 50 mg of the thus pulverized bone with 1 ml of 2 N aqueous hydrochloric solution at room temperature, the insoluble matter was removed by filtration, and the filtrate was subjected to atomic absorption method to find out the content of magnesium in the bone specimen. Magnesium content of the serum specimen was determined by atomic absorption method.

[4] = test system: blood sugar; experiment: Blood sugar in streptozotocin rats (Example 22); format: in vivo, male Wistar rats; conditions: 10 µg/kg/day p.o., 4 weeks, streptozotocin i.p.
Description: Among the male Wistar rats in 6th week after birth to which 60 mg of streptozotocin/kg body weight was intraperitoneally administered, those in which positive urine sugar was confirmed after one week of the administration, reduction of both urine sugar and blood sugar was shown by the administration of regular insulin and a state of hyper urine sugar and hyper blood sugar was confirmed after a few days of the administration of regular insulin. The confirmed rats were used as the model animals of glycosuria in the following tests. As control, the male Wistar rats intraperitoneally administered with aqueous physiological saline solution instead of streptozotocin were used. These rats were fed with an ordinary solid diet (CE-2, prepared by Nippon Crea Co., Ltd.)
The model animals were divided into two groups each consisting of 12 animals, and to the rats of the first group (according to the present invention), 24R,25-(OH)2 -D3 was forcibly administered p.o. in a state of solution in MCT (triglyceride of C8 and C10 -fatty acid) containing 0.2% by weight of ethanol once a day, 5 to 6 times a week for continuous 4 weeks at a daily dose rate of 10 micrograms/kg body weight. To the rats of the second group, only the same amount of MCT containing 0.2% by weight of ethanol as above was forcibly p.o. administered in the same manner as in the first group. […]

## C=C1CC[C@H](O)C/C1=C/C=C1\CCC[C@]2(C)[C@@H]([C@H](C)CC[C@@H](O)C(C)(C)O)CC[C@@H]12 [24R,25-(OH)2 -D3]
[1]; average of 8 patients, 2 to 10 µg/day, 8 weeks
  Concentration of inorganic phosphate after administration, average: 4.60 ± 0.66 mg/dL
[1]; average of 8 patients, baseline
  Concentration of inorganic phosphate before administration, average: 6.24 ± 0.53 mg/dL
[1]; patient 1 (person six), 10 µg/day, 8 weeks
  Concentration of inorganic phosphate after administration: 5.5 mg/dL
[1]; patient 1 (person six), baseline
  Concentration of inorganic phosphate before administration: 7.2 mg/dL
[1]; patient 2 (person sixteen), 6 µg/day, 8 weeks
  Concentration of inorganic phosphate after administration: 4.7 mg/dL
[1]; patient 2 (person sixteen), baseline
  Concentration of inorganic phosphate before administration: 6.3 mg/dL
[1]; patient 3 (person four), 4 µg/day, 8 weeks
  Concentration of inorganic phosphate after administration: 4.7 mg/dL
[1]; patient 3 (person four), baseline
  Concentration of inorganic phosphate before administration: 5.9 mg/dL
[1]; patient 4 (person twelve), 8 µg/day, 8 weeks
  Concentration of inorganic phosphate after administration: 4.9 mg/dL
[1]; patient 4 (person twelve), baseline
  Concentration of inorganic phosphate before administration: 6.5 mg/dL
[1]; patient 5 (person twenty), 6 µg/day, 8 weeks
  Concentration of inorganic phosphate after administration: 5.3 mg/dL
[1]; patient 5 (person twenty), baseline
  Concentration of inorganic phosphate before administration: 6.6 mg/dL
[1]; patient 6 (person three), 4 µg/day, 8 weeks
  Concentration of inorganic phosphate after administration: 3.8 mg/dL
[1]; patient 6 (person three), baseline
  Concentration of inorganic phosphate before administration: 5.8 mg/dL
[1]; patient 7 (person one), 2 µg/day, 8 weeks
  Concentration of inorganic phosphate after administration: 3.7 mg/dL
[1]; patient 7 (person one), baseline
  Concentration of inorganic phosphate before administration: 5.5 mg/dL
[1]; patient 8 (person ten), 6 µg/day, 8 weeks
  Concentration of inorganic phosphate after administration: 4.2 mg/dL
[1]; patient 8 (person ten), baseline
  Concentration of inorganic phosphate before administration: 6.1 mg/dL
[1]; patient of chronic renal failure, normal level 2.5 to 5.5 mg/dl
  inorganic phosphate level in serum: significantly reduced to the normal level
[2]
  ulcer coefficient: 1.5 mm^2
[2]; vs control
  rate of ulcer healing: 80%
[3]; 1 µg/100 g/day oral 5 weeks
  Content of magnesium in bone: 0.395 ± 0.021%
  Content of magnesium in serum: 4.0 ± 0.3 mg/dL
[3]; 10 µg/100 g/day oral 5 weeks
  Content of magnesium in bone: 0.396 ± 0.016%
  Content of magnesium in serum: 3.6 ± 0.3 mg/dL
[4]
  Blood sugar: 208 ± 42 mg/dL
